We go through 64 molecules from PubChem BioAssay AID977613 (Broad Institute, 2014).

Activity calls are given as the source filed them. How the calls were made is not given here.

This experiment has as its system Broad 7084-01 inhibitor HTS, set 2. Put plainly: single-concentration hits, screen 7084 set 2 (AID 977613).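 Further: host cells are infected with parasite promastigotes that become internalized.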
For `C/C=C/c1ccc([C@H]2[C@H]3CN(S(=O)(=O)c4ccccc4)CC(=O)N3[C@H]2CO)cc1`, the active concentration is > 10 µM (inactive).

As to `O=C(C[C@@H]1CC[C@H]2[C@@H](COC[C@@H](O)CN2C(=O)Nc2ccc(Cl)c(Cl)c2)O1)NCc1ccc(Cl)cc1`, the active concentration is > 10 µM (inactive).

Regarding `O=C(C[C@@H]1CC[C@@H]2[C@H](COC[C@@H](O)CN2Cc2ccccc2)O1)NCCc1ccccc1`, the active concentration was > 10 µM (inactive).

Turning to `COc1cccc(NC(=O)Nc2ccc3c(c2)C(=O)N(C)[C@@H]2CC[C@@H](CC(=O)NCCc4ccccc4)O[C@@H]2CO3)c1`, the active concentration was > 10 µM (inactive).

As to `COc1ccc2c3c([nH]c2c1)[C@H](CO)N(C(C)=O)CC31CN(Cc2ccccc2Cl)C1`, the active concentration is > 10 µM (inactive).

`O=C(C[C@@H]1CC[C@H]2[C@@H](COC[C@H](O)CN2Cc2cccc(F)c2)O1)NCc1cccc(F)c1`: the active concentration is > 10 µM (inactive).

As for `O=C(C[C@H]1CC[C@H]2[C@@H](COC[C@H](O)CN2CC2CCOCC2)O1)NCC1CCCCC1`, the active concentration is > 10 µM (inactive).

On to `COc1ccc2c3c(n(C)c2c1)[C@H](CO)N(S(=O)(=O)c1ccc(C)cc1)CC31CCN(C)CC1`, for which the active concentration was > 10 µM (inactive).

On to `COc1cccc(-c2ccc([C@@H]3[C@@H](CO)N4C(=O)CNC[C@H]34)cc2)c1`, for which the active concentration was > 10 µM (inactive).

As to `O=C(C1CCCCC1)N1CC(=O)N2[C@H](CO)[C@@H](c3ccc(-c4ccccc4F)cc3)[C@H]2C1`, the active concentration was > 10 µM (inactive).

In the case of `C/C=C/c1ccc([C@@H]2[C@@H](CO)N(C(=O)C3CCOCC3)C23CN(C(=O)NC(C)C)C3)cc1`, the active concentration was > 10 µM (inactive).

With `O=C(c1cccnc1)N1CC[C@@H]2[C@@H](CO)Nc3ccc(C4=CCCCC4)cc3[C@@H]21`, the active concentration was > 10 µM (inactive).

Turning to `COCC#Cc1ccc([C@@H]2[C@@H](CO)N3C(=O)CN(C(=O)Nc4ccccc4F)C[C@H]23)cc1`, the active concentration is > 10 µM (inactive).

For the molecule `Cc1ccccc1-c1ccc([C@@H]2[C@@H](CO)N3C(=O)CN(S(C)(=O)=O)C[C@H]23)cc1`, the active concentration was > 10 µM (inactive).

Regarding `CC=Cc1ccc2n(c1=O)C[C@@H]1[C@@H](CO)[C@H](C(=O)NC3CCC3)[C@H]2N1S(=O)(=O)c1cn(C)cn1` (mixture of isomers), the active concentration was > 10 µM (inactive).

Regarding `CC(=O)N1CCCCN2[C@@H](CO)[C@H](c3ccc(-c4ccccc4)cc3)[C@@H]2C1`, the active concentration was > 10 µM (inactive).

As to `CC(C)NC(=O)Nc1ccc2c(c1)C(=O)N(C)[C@H]1CC[C@H](CC(=O)NCc3ccc(F)cc3)O[C@H]1CO2`, the active concentration is > 10 µM (inactive).

With `CC(C)NC(=O)N1CC2(C1)[C@H](c1ccccc1)[C@@H](CO)N2CCC(F)(F)F`, the active concentration is > 10 µM (inactive).

On to `Cn1cnc(CCNC(=O)C[C@@H]2CC[C@H]3[C@@H](COC[C@@H](O)CN3C(=O)C3CC3)O2)c1`, for which the active concentration was > 10 µM (inactive).

Regarding `CC(C)NC(=O)N1CC2(C1)[C@H](c1ccccc1)[C@H](CO)N2Cc1cncnc1`, the active concentration was less than 10 µM.

On to `N#C[C@H]1[C@@H](c2ccccc2C2=CCCC2)[C@@H](CO)N1S(=O)(=O)c1ccccc1`, for which the active concentration is > 10 µM (inactive).

In the case of `COc1ccc(NC(=O)N2CCCCN3[C@H](CO)[C@@H](c4ccc(-c5ccccc5F)cc4)[C@@H]3C2)cc1`, the active concentration is > 10 µM (inactive).

On to `O=C(C[C@@H]1CC[C@H]2[C@@H](COC[C@@H](O)CN2Cc2cc(F)cc(F)c2)O1)NC1CCC1`, for which the active concentration was > 10 µM (inactive).

Turning to `C/C=C/c1ccc([C@@H]2[C@@H](CO)N3CCCCN(S(=O)(=O)c4ccc(OC)cc4)C[C@H]23)cc1`, the active concentration is > 10 µM (inactive).

With `O=C(C[C@H]1CC[C@@H]2[C@H](COC[C@H](O)CN2CCc2ccccc2)O1)NCc1ccc(F)cc1`, the active concentration is > 10 µM (inactive).

For the molecule `CCS(=O)(=O)N1CCC2(CC1)CN(C(=O)Nc1c(C)noc1C)[C@H](CO)c1c2c2ccc(OC)cc2n1C`, the active concentration was > 10 µM (inactive).

Regarding `C/C=C/c1ccc([C@@H]2[C@@H](CO)N3C(=O)CN(S(=O)(=O)c4ccccc4)C[C@@H]23)cc1`, the active concentration is > 10 µM (inactive).

Consider `COc1ccc(CN2[C@H](CO)[C@H]3c4ccccc4NC[C@H]32)cc1`, for which the active concentration is less than 10 µM.

For the molecule `O=C(C[C@H]1CC[C@@H]2[C@H](COC[C@H](O)CN2CCC(F)(F)F)O1)NCC1CC1`, the active concentration is > 10 µM (inactive).

As for `CCNC(=O)Nc1ccc2c(c1)C(=O)N(C)[C@@H]1CC[C@@H](CC(=O)N[C@H](C)c3ccccc3)O[C@H]1CO2`, the active concentration is > 10 µM (inactive).

With `CS(=O)(=O)N1CC2(C1)[C@@H](c1ccccc1)[C@@H](CO)N2Cc1ccccn1`, the active concentration was > 10 µM (inactive).

On to `OC[C@@H]1[C@H](c2ccc(Br)cc2)[C@H]2CN(Cc3ccccn3)CCCCN12`, for which the active concentration is > 10 µM (inactive).

Consider `O=C([C@@H]1N[C@@H]2c3ccc(-c4ccccc4F)c(=O)n3C[C@@H]2[C@H]1CO)N1CCc2ccccc2C1`, for which the active concentration is > 10 µM (inactive).

In the case of `CC(=O)N1CCCCN2[C@@H](CO)[C@@H](c3ccc(-c4ccccc4)cc3)[C@@H]2C1`, the active concentration was > 10 µM (inactive).

`O=C(C[C@H]1CC[C@@H]2[C@H](COC[C@H](O)CN2C(=O)Nc2ccc(Cl)c(Cl)c2)O1)NCc1ccc(Cl)cc1`: the active concentration was > 10 µM (inactive).

With `Cc1nn(C)cc1NC(=O)C[C@H]1CC[C@@H]2[C@@H](COc3ccc(NC(=O)C4CCOCC4)cc3C(=O)N2C)O1`, the active concentration is > 10 µM (inactive).

Consider `CN(C)CC(=O)N1CCCCN2[C@@H](CO)[C@@H](c3ccc(/C=C/c4ccccc4)cc3)[C@@H]2C1`, for which the active concentration is less than 10 µM.

On to `O=C(C[C@H]1CC[C@H]2[C@@H](COC[C@H](O)CN2S(=O)(=O)c2ccc(F)cc2)O1)NCC1CC1`, for which the active concentration is > 10 µM (inactive).

Turning to `O=C(Nc1cccc(F)c1)N1C[C@@H]2[C@H](c3ccccc31)[C@@H](CO)N2C(=O)Cc1ccccn1`, the active concentration was > 10 µM (inactive).

As to `C/C=C/c1ccc([C@H]2[C@@H](CO)N(C(=O)CN(C)C)C23CN(C(=O)C2CCC2)C3)cc1`, the active concentration was > 10 µM (inactive).

With `CN(C)C(=O)C[C@@H]1CC[C@@H]2[C@H](COC[C@@H](O)CN2CC2CC2)O1`, the active concentration was > 10 µM (inactive).

In the case of `O=C(C1CCOCC1)N1CC(=O)N2[C@@H](CO)[C@@H](c3ccc(C#CCc4ccccc4)cc3)[C@@H]2C1`, the active concentration is > 10 µM (inactive).

With `O=C(c1cnccn1)N1CC(=O)N2[C@H](CO)[C@@H](c3ccc(C#CC4CC4)cc3)[C@@H]2C1`, the active concentration is > 10 µM (inactive).

As for `CCCNC(=O)N1[C@H](C#N)[C@H](c2ccccc2-c2ccc(C)cc2)[C@@H]1CO`, the active concentration was > 10 µM (inactive).

With `CCS(=O)(=O)N1CCC2(CC1)CN[C@@H](CO)c1[nH]c3cc(OC)ccc3c12`, the active concentration was > 10 µM (inactive).

On to `Cc1ccc(NC(=O)Nc2ccc3c(c2)C(=O)N(C)[C@@H]2CC[C@@H](CC(=O)NCC(F)(F)F)O[C@@H]2CO3)cc1`, for which the active concentration is > 10 µM (inactive).

Regarding `O=C(C1CCOCC1)N1CC(=O)N2[C@@H](CO)[C@H](c3ccc(-c4cccnc4)cc3)[C@@H]2C1`, the active concentration was > 10 µM (inactive).

As for `CCC(=O)N1[C@@H]2Cn3c(ccc(-c4ccncc4)c3=O)[C@H]1[C@@H](C(=O)NC1Cc3ccccc3C1)[C@@H]2CO`, the active concentration was > 10 µM (inactive).

In the case of `CCS(=O)(=O)N1CC2(CN(CC3CCOCC3)[C@@H](CO)c3c2c2ccc(OC)cc2n3C)C1`, the active concentration was > 10 µM (inactive).

With `O=C(O)[C@H]1[C@H](CO)[C@H]2Cn3c(ccc(/C=C/c4ccccc4)c3=O)[C@H]2N1Cc1ccc2c(c1)OCO2`, the active concentration is > 10 µM (inactive).

Consider `O=C(C[C@@H]1CC[C@H]2[C@@H](COC[C@H](O)CN2CC2CCOCC2)O1)NCC1CCCCC1`, for which the active concentration was > 10 µM (inactive).

For `COCC#Cc1ccc([C@@H]2[C@H]3CN(C(=O)Nc4ccccc4F)CC(=O)N3[C@H]2CO)cc1`, the active concentration was > 10 µM (inactive).

As to `COC(=O)[C@H]1[C@H](CO)[C@H]2Cn3c(ccc(-c4ccccc4F)c3=O)[C@@H]1N2`, the active concentration is > 10 µM (inactive).

As for `Cc1ccc(S(=O)(=O)N2CC[C@@H]3[C@H]2c2cc(C#Cc4ccc(F)cc4)ccc2N[C@@H]3CO)cc1`, the active concentration was > 10 µM (inactive).

As to `O=C(C[C@@H]1CC[C@H]2[C@@H](COC[C@@H](O)CN2Cc2cccc(C(F)(F)F)c2)O1)NCc1ccccc1`, the active concentration is > 10 µM (inactive).

In the case of `O=C(O)[C@H]1[C@H](CO)[C@H]2Cn3c(ccc(-c4cncnc4)c3=O)[C@H]2N1C(=O)C1CCCCC1`, the active concentration was > 10 µM (inactive).

In the case of `O=S(=O)(c1ccc(F)cc1)N1C[C@H]2[C@@H](c3ccccc31)[C@@H](CO)N2Cc1ccccc1Cl`, the active concentration was > 10 µM (inactive).

Take `Cn1cnc(CCNC(=O)C[C@H]2CC[C@H]3[C@@H](COC[C@H](O)CN3C(=O)C3CC3)O2)c1`: the active concentration is > 10 µM (inactive).

With `Cn1cnc(CCNC(=O)C[C@@H]2CC[C@@H]3[C@H](COC[C@@H](O)CN3C(=O)C3CC3)O2)c1`, the active concentration is > 10 µM (inactive).

Regarding `CN1C(=O)c2cc(NC(=O)c3ccc(F)c(F)c3)ccc2OC[C@H]2O[C@@H](CC(=O)N[C@@H]3CCN(Cc4ccccc4)C3)CC[C@H]21`, the active concentration is > 10 µM (inactive).

Consider `O=C(C[C@@H]1CC[C@@H]2[C@H](COC[C@@H](O)CN2S(=O)(=O)c2ccccc2)O1)Nc1ccccc1`, for which the active concentration is > 10 µM (inactive).

Take `COc1ccc2c3c([nH]c2c1)[C@@H](CO)NCC31CN(C(=O)Nc2ccc3c(c2)OCO3)C1`: the active concentration is > 10 µM (inactive).

With `C/C=C/c1ccc([C@H]2[C@@H](CO)N3C(=O)CN(C(=O)c4ccncc4)C[C@@H]23)cc1`, the active concentration was > 10 µM (inactive).

Turning to `C/C=C/c1ccccc1[C@H]1[C@@H](C#N)N(C(=O)NC2CCCCC2)[C@H]1CO`, the active concentration is > 10 µM (inactive).
